Measurements: EP2725073B1, “Antifouling coating composition” (Jotun A/S, priority 2012, dated 2014)

Assay: Determination of carbodiimide half-life by IR spectroscopy (reaction with acetic acid in xylene)
Assay type: physicochemical
Conditions: for Remarks: observation during reaction with acetic acid in xylene at 23±2°C; for Half-life: time for 50% of the carbodiimide compound to react with acetic acid in xylene at 23±2°C, carbodiimide absorption at 2100-2200 cm^-1
Method: In particular, the carbodiimides of the present invention have slower reactivity than those described in US2005/0255081A1. The reactivity of carbodiimide compounds can be expressed as the half-life, i.e. in this case the time it takes for 50% of the carbodiimide compound to react with the carboxylic acid.
The carbodiimide compound preferably has relatively slow reactivity. Reactivity is measured by way of the half-life of the carbodiimide, which is defined as the time taken for 50% of the carbodiimide compound to react with a carboxylic acid.
Solutions of the carbodiimide compounds and acetic acid in xylene are prepared. A carbodiimide solution and the acetic acid solution are mixed and the reaction between the carbodiimide compound and acetic acid at 23±2°C is monitored by following the carbodiimide absorption at 2100-2200 cm^-1 in an zinc selenide cell. The reaction is followed until approximately 50% of the carbodiimide compound has reacted.

SMILES | Remarks | Half-life
CC(C)N=C=NC(C)C [1,3-Diisopropylcarbodiimide] | Precipitation of urea products | 0.75 h
Cc1ccccc1N=C=Nc1ccccc1C [1,3-Di-o-methylphenylcarbodiimide] |  | 3 h
C[Si](C)(C)N=C=N[Si](C)(C)C [1,3-bis(trimethylsilyl)carbodiimide] | No reaction | 
CC(C)c1cccc(C(C)C)c1N=C=Nc1c(C(C)C)cccc1C(C)C [Bis(2,6-diisopropylphenyl) carbodiimide] |  | 30 h
C(=NC1CCCCC1)=NC1CCCCC1 [1,3-Dicyclohexylcarbodiimide] | Precipitation of urea products | 0.25 h
Cc1ccc(N=C=Nc2ccc(C)cc2)cc1 [1,3-Di-p-tolylcarbodiimide] |  | 2 h
